Tests used:
Format in all cases: cell-based
[1] = test system: Bacillus subtilis C-3102 (FERM BP-1096); assay: Influence of the concentration of germination inducer on turbidity change (Example 2); details: for turbidity (630 nm): 37° C., 150 rpm
Method: Next, 500 μL aliquots of bacterial suspension of Bacillus subtilis C-3102 (FERM BP-1096) used in Example 1 were mixed with 500 μL of ferulic acid, or vanillic acid solutions described above, and the mixtures were adjusted to ferulic acid (10 to 600 ppm), or vanillic acid (10 to 1800 ppm) concentrations set forth in Table 2. The concentrations of ferulic acid at the reaction initiation were 10, 100, 300, and 600 ppm, and the concentrations of vanillic acid at the reaction initiation were 10, 100, 300, 600, 1200, and 1800 ppm.
As same as Example 1, defining the time point of mixing the bacterial suspension with the solution of ferulic acid, or vanillic acid as the reaction initiation (0 min), and continuing shaking (150 rpm) at 37° C., the absorbance (630 nm) was measured at 10, 20, 30, 40, 50, 60, 90, 120, and 180 min after the reaction initiation.

[2] = test system: Bacillus licheniformis (NBRC 12200); assay: Germination induction, change of turbidity (630 nm) of spore suspension; details: 300 ppm; for turbidity (630 nm): 37° C., 150 rpm
Method: (§1) It is possible to determine whether spores have germinated, after measuring an OD 630 value (turbidity at 630 nm) of the liquid culture, based on decrease in the value (Literature: Microbiology, (1950), 4, 3, 330-338). Briefly, bacterial cells after culturing are washed with distilled water and diluted with distilled water to OD 630=1.0, which is then mixed with an equal volume of a germination induction solution, and the turbidity at 630 nm is measured by a UV spectrophotometer at room temperature.
(§2) TS culture media (Difco, Trypticase Soy Broth) were inoculated respectively with 11 strains listed in Table 1 and cultured at 50° C. with respect to Geobacillus stearothermophilus NBRC13737 and Aeribacillus pallidus TK6004 (FERM BP-08597), and at 37° C. with respect to the other 9 strains, until respective colonies were established. Then with respect to each of 11 strains, a loop full of a single colony was scratched by a platinum loop and suspended in 500 μL of sterilized water. In 1000 g of water was dissolved 8.0 g of a nutrient agar culture medium (Difco, Nutrient Broth), followed by high pressure steam sterilization (121° C., 15 min) to prepare a plate medium. The nutrient agar culture medium was smeared with each 100 μL of the suspension and cultured at 37° C. for 3 days.
(§3) Then, bacterial cells were suspended using a platinum loop in 500 μL of sterilized water, and the bacterial suspension was subjected to a heat shock at 65° C. for 35 min. Each 100 μL of the heat-shocked bacterial suspension and a not-heat-shocked bacterial suspension were smeared on the TS culture media respectively and cultured at 50° C. or 37° C. for 1 day.
(§4) After confirming the spore formation, the bacterial cells were collected by a bacteria spreader, suspended in 10 mL of sterilized distilled water, and then centrifuged (8340×g, 4° C., 15 min). The supernatant was removed and thereafter the bacterial cells were washed twice with 10 mL of sterilized water. After washing, the bacterial cells were suspended in 5 mL of sterilized water, and the suspension was filtrated by sterilized Kimwipes. The filtrate was centrifuged (8340×g, 4° C., 15 min) to remove the supernatant, and the rest was adjusted to the turbidity (at 630 nm) of 1.0 with sterilized water.
(§5) After dissolving with stirring using a stirring rod with a propeller, filtration sterilization (0.45 μm filter) was conducted to prepare each 600 ppm-solution.
(§6) Five hundred (500) μL of each solution and 500 μL of each bacterial spore suspension were mixed. […] Defining the time point of mixing as the reaction initiation (0 min), and continuing shaking (150 rpm) at 37° C., the turbidity (630 nm) was measured at 10, 20, 30, 40, 50, 60, 90, 120, and 180 min after the reaction initiation.
(§7) Since the turbidity at 630 nm decreases by germination of spores, it has been known that the turbidity at 630 nm can be used to determine the germination rate.

[3] = test system: Bacillus licheniformis (NBRC 14206); assay: as above; details: 300 ppm; for turbidity (630 nm): 37° C., 150 rpm
Method: as §1, §2, §3, §4, §5, §6, §7

[4] = 0 min after reaction initiation
[5] = 10 min after reaction initiation
[6] = 20 min after reaction initiation
[7] = 30 min after reaction initiation
[8] = 40 min after reaction initiation
[9] = 50 min after reaction initiation
[10] = 60 min after reaction initiation
[11] = 90 min after reaction initiation
[12] = 120 min after reaction initiation
[13] = 180 min after reaction initiation

`COc1cc(/C=C/C(=O)O)ccc1O` [Ferulic acid, ferulic acid] was tested, and the “turbidity (630 nm)” value ([1]; ferulic acid 10 ppm, 0 min after reaction initiation) was 0.584, the “turbidity (630 nm)” value ([1]; ferulic acid 10 ppm, 10 min after reaction initiation) was 0.563 and the “turbidity (630 nm)” value ([1]; ferulic acid 10 ppm, 20 min after reaction initiation) was 0.553. The “turbidity (630 nm)” value ([1]; ferulic acid 10 ppm, 30 min after reaction initiation) was 0.544, the “turbidity (630 nm)” value ([1]; ferulic acid 10 ppm, 40 min after reaction initiation) was 0.533 and the “turbidity (630 nm)” value ([1]; ferulic acid 10 ppm, 50 min after reaction initiation) was 0.519. For the same compound, the “turbidity (630 nm)” value ([1]; ferulic acid 10 ppm, 60 min after reaction initiation) was 0.507, the “turbidity (630 nm)” value ([1]; ferulic acid 10 ppm, 90 min after reaction initiation) was 0.488 and the “turbidity (630 nm)” value ([1]; ferulic acid 10 ppm, 120 min after reaction initiation) was 0.447. The “turbidity (630 nm)” value ([1]; ferulic acid 10 ppm, 180 min after reaction initiation) was 0.353, the “turbidity (630 nm)” value ([1]; ferulic acid 100 ppm, 0 min after reaction initiation) was 0.583 and the “turbidity (630 nm)” value ([1]; ferulic acid 100 ppm, 10 min after reaction initiation) was 0.565. The “turbidity (630 nm)” value ([1]; ferulic acid 100 ppm, 20 min after reaction initiation) was 0.556, the “turbidity (630 nm)” value ([1]; ferulic acid 100 ppm, 30 min after reaction initiation) was 0.53 and the “turbidity (630 nm)” value ([1]; ferulic acid 100 ppm, 40 min after reaction initiation) was 0.52. The “turbidity (630 nm)” value ([1]; ferulic acid 100 ppm, 50 min after reaction initiation) was 0.500, the “turbidity (630 nm)” value ([1]; ferulic acid 100 ppm, 60 min after reaction initiation) was 0.484 and the “turbidity (630 nm)” value ([1]; ferulic acid 100 ppm, 90 min after reaction initiation) was 0.448. For the same compound, the “turbidity (630 nm)” value ([1]; ferulic acid 100 ppm, 120 min after reaction initiation) was 0.383, the “turbidity (630 nm)” value ([1]; ferulic acid 100 ppm, 180 min after reaction initiation) was 0.247 and the “turbidity (630 nm)” value ([1]; ferulic acid 300 ppm, 0 min after reaction initiation) was 0.579. The “turbidity (630 nm)” value ([1]; ferulic acid 300 ppm, 10 min after reaction initiation) was 0.56, the “turbidity (630 nm)” value ([1]; ferulic acid 300 ppm, 20 min after reaction initiation) was 0.547 and the “turbidity (630 nm)” value ([1]; ferulic acid 300 ppm, 30 min after reaction initiation) was 0.530. For the same compound, the “turbidity (630 nm)” value ([1]; ferulic acid 300 ppm, 40 min after reaction initiation) was 0.520, the “turbidity (630 nm)” value ([1]; ferulic acid 300 ppm, 50 min after reaction initiation) was 0.499 and the “turbidity (630 nm)” value ([1]; ferulic acid 300 ppm, 60 min after reaction initiation) was 0.466. For the same compound, the “turbidity (630 nm)” value ([1]; ferulic acid 300 ppm, 90 min after reaction initiation) was 0.422, the “turbidity (630 nm)” value ([1]; ferulic acid 300 ppm, 120 min after reaction initiation) was 0.354 and the “turbidity (630 nm)” value ([1]; ferulic acid 300 ppm, 180 min after reaction initiation) was 0.22. The “turbidity (630 nm)” value ([1]; ferulic acid 600 ppm, 0 min after reaction initiation) was 0.586, the “turbidity (630 nm)” value ([1]; ferulic acid 600 ppm, 10 min after reaction initiation) was 0.552 and the “turbidity (630 nm)” value ([1]; ferulic acid 600 ppm, 20 min after reaction initiation) was 0.545. For the same compound, the “turbidity (630 nm)” value ([1]; ferulic acid 600 ppm, 30 min after reaction initiation) was 0.526, the “turbidity (630 nm)” value ([1]; ferulic acid 600 ppm, 40 min after reaction initiation) was 0.515 and the “turbidity (630 nm)” value ([1]; ferulic acid 600 ppm, 50 min after reaction initiation) was 0.506. For the same compound, the “turbidity (630 nm)” value ([1]; ferulic acid 600 ppm, 60 min after reaction initiation) was 0.477, the “turbidity (630 nm)” value ([1]; ferulic acid 600 ppm, 90 min after reaction initiation) was 0.447 and the “turbidity (630 nm)” value ([1]; ferulic acid 600 ppm, 120 min after reaction initiation) was 0.379. For the same compound, the “turbidity (630 nm)” value ([1]; ferulic acid 600 ppm, 180 min after reaction initiation) was 0.246, the “germination induction versus concentration” value ([1]; ferulic acid of 10 to 600 ppm) was “germination was inducted at any concentration to the same extent” and the “turbidity (630 nm)” value [2, 4] was 0.601. The “turbidity (630 nm)” value [2, 5] was 0.569, the “turbidity (630 nm)” value [2, 6] was 0.563 and the “turbidity (630 nm)” value [2, 7] was 0.543. For the same compound, the “turbidity (630 nm)” value [2, 8] was 0.536, the “turbidity (630 nm)” value [2, 9] was 0.517 and the “turbidity (630 nm)” value [2, 10] was 0.503. The “turbidity (630 nm)” value [2, 11] was 0.460, the “turbidity (630 nm)” value [2, 12] was 0.417 and the “turbidity (630 nm)” value [2, 13] was 0.334. The “germination confirmed by turbidity decrease” value ([2]; up to 180 min) was “the turbidity decreased”, the “turbidity (630 nm)” value [3, 4] was 0.589 and the “turbidity (630 nm)” value [3, 5] was 0.583. The “turbidity (630 nm)” value [3, 6] was 0.573, the “turbidity (630 nm)” value [3, 7] was 0.565 and the “turbidity (630 nm)” value [3, 8] was 0.553. The “turbidity (630 nm)” value [3, 9] was 0.547, the “turbidity (630 nm)” value [3, 10] was 0.530 and the “turbidity (630 nm)” value [3, 11] was 0.498. For the same compound, the “turbidity (630 nm)” value [3, 12] was 0.474, the “turbidity (630 nm)” value [3, 13] was 0.463 and the “germination confirmed by turbidity decrease” value ([3]; up to 180 min) was “the turbidity decreased”.
